In brackets after ≈: the same amount, converted by molar mass. Each block holds one molecule with its values, some of them ahead of it. Activity calls are given as the source filed them. The calls are words filed in the database; no cut-off is given here.
Assays:
[1] = system: Enterococcus faecium; test: Bactericidal activity against Enterococcus faecium C15 at 90 uM incubated for 24 hrs by microdilution assay; type: functional, organism-based
[2] = system: Klebsiella aerogenes; test: Bactericidal activity against Enterobacter aerogenes ATCC 13048 at 90 uM incubated for 24 hrs by microdilution assay; type: functional
[3] = system: Klebsiella pneumoniae; test: Bactericidal activity against Klebsiella pneumoniae ATCC 12657 at 90 uM incubated for 24 hrs by microdilution assay; type: functional, organism-based
[4] = system: NHDF; test: Cytotoxicity against human HDF cells assessed as reduction in cell viability incubated for 7 days by CellTiter 96 aqueous one solution assay; type: functional, cell-based; details: 168 h
[5] = system: Enterococcus faecium; test: Bactericidal activity against Enterococcus faecium ATCC 35667 at 90 uM incubated for 24 hrs by microdilution assay; type: functional, organism-based
[6] = system: Staphylococcus aureus; test: Antibacterial activity against Staphylococcus aureus ATCC 29247 at 90 uM incubated for 24 hrs by microdilution assay; type: functional, organism-based
[7] = system: Acinetobacter baumannii; test: Bactericidal activity against Acinetobacter baumannii ATCC 19606 at 90 uM incubated for 24 hrs by microdilution assay; type: functional, organism-based; details: ATCC 19606 = CIP 70.34 = JCM 6841
[8] = system: Staphylococcus aureus; test: Antibacterial activity against Staphylococcus aureus ATCC 25923 at 90 uM incubated for 24 hrs by microdilution assay; type: functional, organism-based
[9] = system: Enterobacter cloacae subsp. cloacae; test: Antibacterial activity against Enterobacter cloacae ATCC 13047 at 90 uM incubated for 24 hrs by microdilution assay; type: functional
[10] = system: Acinetobacter baumannii; test: Bactericidal activity against Acinetobacter baumannii ATCC 17978 at 90 uM incubated for 24 hrs by microdilution assay; type: functional, organism-based
[11] = system: Pseudomonas aeruginosa; test: Bactericidal activity against Pseudomonas aeruginosa ATCC 49189 at 90 uM incubated for 24 hrs by microdilution assay; type: functional, organism-based
[12] = system: Enterococcus faecium; test: Antibacterial activity against Enterococcus faecium C15 incubated for 24 hrs by microdilution assay; type: functional
[13] = system: Acinetobacter baumannii; test: Antibacterial activity against Acinetobacter baumannii ATCC 17978 at 90 uM incubated for 24 hrs by microdilution assay; type: functional, organism-based
[14] = system: Staphylococcus aureus; test: Bactericidal activity against Staphylococcus aureus ATCC 29247 at 90 uM incubated for 24 hrs by microdilution assay; type: functional, organism-based
[15] = system: Klebsiella pneumoniae; test: Antibacterial activity against Klebsiella pneumoniae ATCC 13883 at 90 uM incubated for 24 hrs by microdilution assay; type: functional, organism-based
[16] = system: Staphylococcus aureus; test: Bactericidal activity against Staphylococcus aureus ATCC 25923 at 90 uM incubated for 24 hrs by microdilution assay; type: functional, organism-based
[17] = system: Klebsiella pneumoniae; test: Bactericidal activity against Klebsiella pneumoniae ATCC 13883 at 90 uM incubated for 24 hrs by microdilution assay; type: functional, organism-based
[18] = system: Klebsiella pneumoniae; test: Antibacterial activity against Klebsiella pneumoniae ATCC 12657 at 90 uM incubated for 24 hrs by microdilution assay; type: functional, organism-based
[19] = system: Pseudomonas aeruginosa; test: Antibacterial activity against Pseudomonas aeruginosa ATCC 10145 at 90 uM incubated for 24 hrs by microdilution assay; type: functional, organism-based
[20] = system: Klebsiella aerogenes; test: Antibacterial activity against Enterobacter aerogenes ATCC 13048 at 90 uM incubated for 24 hrs by microdilution assay; type: functional
[21] = system: Enterobacter cloacae subsp. cloacae; test: Bactericidal activity against Enterobacter cloacae ATCC 13047 at 90 uM incubated for 24 hrs by microdilution assay; type: functional
[22] = system: Acinetobacter baumannii; test: Antibacterial activity against Acinetobacter baumannii ATCC 19606 at 90 uM incubated for 24 hrs by microdilution assay; type: functional, organism-based; details: ATCC 19606 = CIP 70.34 = JCM 6841
[23] = system: Pseudomonas aeruginosa; test: Bactericidal activity against Pseudomonas aeruginosa ATCC 10145 at 90 uM incubated for 24 hrs by microdilution assay; type: functional, organism-based
[24] = system: Enterococcus faecium; test: Antibacterial activity against Enterococcus faecium ATCC 35667 incubated for 24 hrs by microdilution assay; type: functional
[25] = system: HaCaT; test: Cytotoxicity against human HaCaT cells assessed as reduction in cell viability incubated for 4 days by CellTiter 96 aqueous one solution assay; type: cell-based; details: 96 h
[26] = Selectivity ratio of IC50 for human HaCaT cells to IC50 for human HDF cells by CellTiter 96 aqueous one solution assay
[27] = system: Pseudomonas aeruginosa; test: Antibacterial activity against Pseudomonas aeruginosa ATCC 49189 at 90 uM incubated for 24 hrs by microdilution assay; type: functional, organism-based
[28] = system: Staphylococcus aureus; test: Antibacterial activity against Staphylococcus aureus ATCC 29247 incubated for 24 hrs by microdilution assay; type: functional
[29] = system: Staphylococcus aureus; test: Antibacterial activity against Staphylococcus aureus ATCC 25923 incubated for 24 hrs by microdilution assay; type: functional
[30] = system: Enterococcus faecium; test: Antibacterial activity against Enterococcus faecium ATCC 35667 at 90 uM incubated for 24 hrs by microdilution assay; type: functional, organism-based

- MIC75 [12]: 84.1 µM (≈ 50 µg/mL)
- MIC75 [24]: 84.1 µM (≈ 50 µg/mL)
SMILES: C[C@@H]1CC[C@]2(OC1)O[C@H]1C[C@H]3[C@@H]4CC[C@H]5[C@H](O)[C@@H](O)C[C@@H](O[C@@H]6O[C@H](C)[C@H](O)[C@H](O)[C@H]6O)[C@]5(C)[C@H]4CC[C@]3(C)[C@H]1[C@@H]2C
- Activity [1]: inactive
- Activity [2]: inactive
- Activity [3]: inactive
- IC50 [4]: 8.6 µM
- Activity [5]: inactive
- Activity [6]: inactive
- Activity [7]: inactive
- Activity [8]: inactive
- Activity [9]: inactive
- Activity [10]: inactive
- Activity [11]: inactive
- Activity [13]: inactive
- Activity [14]: inactive
- Activity [15]: inactive
- Activity [16]: inactive
- Activity [17]: inactive
- Activity [18]: inactive
- Activity [19]: inactive
- Activity [20]: inactive
- Activity [21]: inactive
- Activity [22]: inactive
- Activity [23]: inactive
- IC50 [25]: 36.3 µM
- Ratio IC50 [26]: 3 - 11
- Activity [27]: inactive

- MIC75 [28]: 9.7 µM (≈ 3.13 µg/mL)
- MIC75 [12]: 9.7 µM (≈ 3.13 µg/mL)
- MIC75 [29]: 9.7 µM (≈ 3.13 µg/mL)
- MIC75 [24]: 9.7 µM (≈ 3.13 µg/mL)
SMILES: O=C(N[C@H](CO)[C@H](O)c1ccc([N+](=O)[O-])cc1)C(Cl)Cl [CHLORAMPHENICOL]
- Activity [1]: inactive
- Activity [5]: inactive
- Activity [14]: inactive
- Activity [16]: inactive

- MIC75 [12]: 84.1 µM (≈ 50 µg/mL)
SMILES: C[C@@H]1CC[C@]2(OC1)O[C@H]1C[C@H]3[C@@H]4CC[C@H]5[C@H](O)[C@H](O)C[C@@H](O[C@@H]6O[C@H](C)[C@H](O)[C@H](O)[C@H]6O)[C@]5(C)[C@H]4CC[C@]3(C)[C@H]1[C@@H]2C
- Activity [1]: inactive
- Activity [2]: inactive
- Activity [3]: inactive
- IC50 [4]: 6.6 µM
- Activity [5]: inactive
- Activity [6]: inactive
- Activity [7]: inactive
- Activity [8]: inactive
- Activity [9]: inactive
- Activity [10]: inactive
- Activity [11]: inactive
- Activity [13]: inactive
- Activity [14]: inactive
- Activity [15]: inactive
- Activity [16]: inactive
- Activity [30]: inactive
- Activity [17]: inactive
- Activity [18]: inactive
- Activity [19]: inactive
- Activity [20]: inactive
- Activity [21]: inactive
- Activity [22]: inactive
- Activity [23]: inactive
- IC50 [25]: 74.9 µM
- Ratio IC50 [26]: 3 - 11
- Activity [27]: inactive

- MIC75 [12]: 84.3 µM (≈ 50 µg/mL)
SMILES: C=C1CC[C@]2(OC1)O[C@H]1C[C@H]3[C@@H]4CC[C@H]5[C@H](O)[C@H](O)C[C@@H](O[C@@H]6O[C@H](C)[C@H](O)[C@H](O)[C@H]6O)[C@]5(C)[C@H]4CC[C@]3(C)[C@H]1[C@@H]2C
- Activity [1]: inactive
- Activity [2]: inactive
- Activity [3]: inactive
- IC50 [4]: 16.5 µM
- Activity [5]: inactive
- Activity [6]: inactive
- Activity [7]: inactive
- Activity [8]: inactive
- Activity [9]: inactive
- Activity [10]: inactive
- Activity [11]: inactive
- Activity [13]: inactive
- Activity [14]: inactive
- Activity [15]: inactive
- Activity [16]: inactive
- Activity [30]: inactive
- Activity [17]: inactive
- Activity [18]: inactive
- Activity [19]: inactive
- Activity [20]: inactive
- Activity [21]: inactive
- Activity [22]: inactive
- Activity [23]: inactive
- IC50 [25]: 47.4 µM
- Ratio IC50 [26]: 3 - 11
- Activity [27]: inactive

— ChEMBL document CHEMBL4414613, “Antibacterial 5α-Spirostane Saponins from the Fruit of Cordyline manners-suttoniae” (J Nat Prod, 2019)
